≈ marks a conversion by molar mass, not a printed value.
Experiments:
C. tropicalis ATCC 750 = assay: antifungal activity (disc-diffusion, MIC, MFC); format: cell-based; details: Candida tropicalis, ATCC750; for MIC: fluconazole by Etest
Procedure, shortened: (§1)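 Diboronic acids (DMSO solutions) at 0.4 mg per disc were used for diffusion testing. Dilution endpoints were MIC, MBC and MFC, per CLSI and EUCAST recommendations.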

S. cerevisiae ATCC 9763 = assay: antifungal activity (disc-diffusion, MIC, MFC); format: cell-based; details: Saccharomyces cerevisiae, ATCC9763; for zone of inhibition at 0.4 mg/disc: 0.4 mg per disc, 9 mm disc (fluconazole 0.025 mg, 6 mm disc), - no zone, read-out: Diameter of inhibition zone; for MIC: fluconazole by Etest
Procedure, shortened: as §1

C. albicans ATCC 90028 = assay: antifungal activity (disc-diffusion, MIC, MFC); format: cell-based; details: Candida albicans, ATCC90028; for MIC: fluconazole by Etest
Procedure, shortened: as §1

C. tropicalis IBA 171 = assay: antifungal activity (disc-diffusion, MIC, MFC); format: cell-based; details: Candida tropicalis, IBA171; for MIC: fluconazole by Etest
Procedure, shortened: as §1

[1] = tested on: C. parapsilosis ATCC 22019; assay: antifungal activity (disc-diffusion, MIC, MFC); format: cell-based, Candida parapsilosis; details: Lodderomyces parapsilosis, ATCC22019; for zone of inhibition at 0.4 mg/disc: 0.4 mg per disc, 9 mm disc (fluconazole 0.025 mg, 6 mm disc), - no zone, read-out: Diameter of inhibition zone; for MIC: fluconazole by Etest
Procedure, shortened: as §1

[2] = tested on: K. pneumoniae 81 KPC-3-positive; assay: checkerboard microdilution, antibiotic plus tested agent; format: cell-based, Klebsiella pneumoniae
Procedure, shortened: (§2)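 Chequerboard layout: tested agent in three two-fold steps (4–16 mg/L) crossed with seven β-lactam dilutions (1–64 mg/L), meropenem for KPC strains and ceftazidime for the cAmpC strain. FICI from first non-growth wells, off-scale MICs raised one doubling; ≤0.5 counts as synergy, >4 antagonism.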

[3] = tested on: K. pneumoniae 83 KPC-3-positive, CTX-M-3-positive; assay: as above; format: cell-based, Klebsiella pneumoniae
Procedure, shortened: as §2

[4] = tested on: K. pneumoniae ATCC BAA-1705 KPC-2-positive; assay: as above; format: cell-based, Klebsiella pneumoniae
Procedure, shortened: as §2

[5] = tested on: E. coli 76 KPC-2-positive; assay: as above; format: cell-based, Escherichia coli
Procedure, shortened: as §2

[6] = tested on: K. pneumoniae ATCC BAA 1705 KPC(+); assay: screening test of direct antimicrobial activity (STDA), disc-diffusion; format: cell-based; details: Klebsiella pneumoniae, BAA1705; 0.3 mg per disc; - no zone; read-out: Diameter of inhibition zone around disc with tested agent
Experimental: (§3) Prior to combination disc tests, screening tests of direct antimicrobial activity (STDA) of the tested agent against β-lactamase-producing strains were performed by the disc-diffusion method. Discs with 0.3 mg, 0.1 mg, and 0.03 mg of each agent were examined. The highest amount of an agent that caused no effect on bacterial growth was used in further experiments.

[7] = tested on: K. pneumoniae ATCC 700603 ESBL(+); assay: as above; format: cell-based; details: Klebsiella pneumoniae, ATCC700603; 0.3 mg per disc; - no zone; read-out: Diameter of inhibition zone around disc with tested agent
Experimental: as §3

[8] = tested on: P. aeruginosa MUW 700 AmpC(+); assay: as above; format: cell-based; details: Pseudomonas aeruginosa; 0.3 mg per disc; - no zone; read-out: Diameter of inhibition zone around disc with tested agent
Experimental: as §3

E. coli 77 CMY-2(+) = assay: as above; format: cell-based; details: Escherichia coli, - no zone, read-out: Diameter of inhibition zone around disc with tested agent; for zone of inhibition at 300 µg/disc: 0.3 mg per disc
Experimental: as §3

[9] = tested on: C. guilliermondii IBA 155; assay: antifungal activity (disc-diffusion, MIC, MFC); format: cell-based, Candida guilliermondii; details: Meyerozyma guilliermondii, IBA155; for zone of inhibition at 0.4 mg/disc: 0.4 mg per disc, 9 mm disc (fluconazole 0.025 mg, 6 mm disc), - no zone, read-out: Diameter of inhibition zone; for MIC: fluconazole by Etest
Procedure, shortened: as §1

[10] = tested on: E. coli 77 CMY-2-positive; assay: combination disc test CDT-AmpC; format: cell-based; details: Escherichia coli, read-out: Diameter of inhibition zone, CAZ-30 disc with agent; for zone of inhibition at 100 µg/disc: agent 0.1 mg per disc
[11] = tested on: Gram-negative rods (except P. aeruginosa); assay: direct antimicrobial activity, MIC; format: cell-based
Experimental: Direct antimicrobial activity against Gram-negative and Gram-positive bacterial strains, as well as against yeast, was examined as previously described by the disc-diffusion test, the MIC determination assay, the MBC (for bacteria), and the MFC (for yeasts) determination tests. All the above-mentioned tests were performed according to EUCAST [71, 72] and CLSI [73, 74, 75, 76, 77] recommendations. The following reference agents were used: nitrofurantoin (for Gram-negative rods), linezolid (for Gram-positive bacteria), and fluconazole (in the case of fungi). The new aromatic diboronic acids were dissolved in DMSO (Sigma, St. Louis, MO, USA). In the disc-diffusion test, the concentration of new agents was 0.4 mg per disc.

[12] = 0.4 mg per disc, 9 mm disc (fluconazole 0.025 mg, 6 mm disc), - no zone, read-out: Diameter of inhibition zone

Compound	MIC (C. tropicalis ATCC 750) [µg/mL]	zone of inhibition at 0.4 mg/disc (S. cerevisiae ATCC 9763) [mm]	MIC (S. cerevisiae ATCC 9763) [µg/mL]	MIC (C. albicans ATCC 90028) [µg/mL]	MIC (C. tropicalis IBA 171) [µg/mL]	zone of inhibition at 0.4 mg/disc [1] [mm]	MIC [1] [µg/mL]	Average FICI with ERT [2]	Average FICI with IMI [2]	Average FICI with MEM [2]	The lowest FICI with ERT [2]	The lowest FICI with IMI [2]	The lowest FICI with MEM [2]	Average FICI with ERT [3]	Average FICI with IMI [3]	Average FICI with MEM [3]	The lowest FICI with ERT [3]	The lowest FICI with IMI [3]	The lowest FICI with MEM [3]	MIC [9] [µg/mL]	also measured
OB(O)c1cc(F)c(B(O)O)c(F)c1 [1d]	400 (≈ 1980 µM)	13	200 (≈ 991 µM)	200 (≈ 991 µM)	200 (≈ 991 µM)	14	200 (≈ 991 µM)	0.40	0.36	0.29	0.17	0.27	0.10	0.69	0.52	0.61	0.52	0.51	0.29	200 (≈ 991 µM)	Average FICI with ERT [4]: 0.86; Average FICI with IMI [4]: 0.69; Average FICI with MEM [4]: 0.44; The lowest FICI with ERT [4]: 0.54; The lowest FICI with IMI [4]: 0.52; The lowest FICI with MEM [4]: 0.29; Average FICI with ERT [5]: 0.36; Average FICI with IMI [5]: 0.44; Average FICI with MEM [5]: 0.44; The lowest FICI with ERT [5]: 0.27; The lowest FICI with IMI [5]: 0.29; The lowest FICI with MEM [5]: 0.29; zone of inhibition at 300 µg/disc [6]: 15 mm; zone of inhibition at 300 µg/disc [7]: 14 mm; zone of inhibition at 300 µg/disc [8]: 12 mm; zone of inhibition at 300 µg/disc (E. coli 77 CMY-2(+)): 13 mm; zone of inhibition at 0.4 mg/disc [9]: 16 mm; zone of inhibition at 100 µg/disc [10]: 20 mm
OB(O)c1ccc(B(O)O)c(F)c1 [1b]	> 400	14	25 (≈ 136 µM)	> 400	400 (≈ 2180 µM)	12	100 (≈ 544 µM)	0.43	0.35	0.28	0.27	0.26	0.08	0.43	0.43	0.60	0.27	0.27	0.27	400 (≈ 2180 µM)	Average FICI with ERT [4]: 0.51; Average FICI with IMI [4]: 0.43; Average FICI with MEM [4]: 0.43; The lowest FICI with ERT [4]: 0.51; The lowest FICI with IMI [4]: 0.27; The lowest FICI with MEM [4]: 0.27; Average FICI with ERT [5]: 0.32; Average FICI with IMI [5]: 0.32; Average FICI with MEM [5]: 0.36; The lowest FICI with ERT [5]: 0.17; The lowest FICI with IMI [5]: 0.17; The lowest FICI with MEM [5]: 0.27; zone of inhibition at 300 µg/disc [6]: 13 mm; zone of inhibition at 300 µg/disc [7]: 12 mm; zone of inhibition at 300 µg/disc [8]: 12 mm; zone of inhibition at 300 µg/disc (E. coli 77 CMY-2(+)): 12 mm; zone of inhibition at 0.4 mg/disc [9]: 24 mm; zone of inhibition at 100 µg/disc [10]: 20 mm
OB(O)c1ccccc1B(O)O [3a, phenylene-1,2-diboronic acid]	> 400		25 (≈ 151 µM)	> 400	> 400		25 (≈ 151 µM)	0.14	0.13	0.10	0.07	0.10	0.07	0.17	0.17	0.13	0.10	0.10	0.06	> 400	Average FICI with ERT [4]: 0.32; Average FICI with IMI [4]: 0.19; Average FICI with MEM [4]: 0.32; The lowest FICI with ERT [4]: 0.17; The lowest FICI with IMI [4]: 0.15; The lowest FICI with MEM [4]: 0.17; Average FICI with ERT [5]: 0.23; Average FICI with IMI [5]: 0.13; Average FICI with MEM [5]: 0.17; The lowest FICI with ERT [5]: 0.17; The lowest FICI with IMI [5]: 0.10; The lowest FICI with MEM [5]: 0.10; MIC [11]: 50 to 400 µg/mL (≈ 302 to 2410 µM); zone of inhibition at 300 µg/disc ([10]; agent 0.3 mg per disc): 23 mm
O=Cc1cc(F)ccc1B(O)O [7b]	50 (≈ 298 µM)	35	6.25 (≈ 37.2 µM)	6.25 (≈ 37.2 µM)	50 (≈ 298 µM)	17	12.5 (≈ 74.4 µM)													25 (≈ 149 µM)	zone of inhibition at 0.4 mg/disc (C. tropicalis ATCC 750; [12]): 21 mm; zone of inhibition at 0.4 mg/disc (C. albicans ATCC 90028; [12]): 31 mm; zone of inhibition at 0.4 mg/disc (C. tropicalis IBA 171; [12]): 22 mm; MIC [11]: 50 to 400 µg/mL (≈ 298 to 2380 µM); zone of inhibition at 300 µg/disc [6]: 14 mm; zone of inhibition at 300 µg/disc [7]: 13 mm; zone of inhibition at 100 µg/disc (E. coli 77 CMY-2(+); 0.1 mg per disc): 12 mm; zone of inhibition at 300 µg/disc (E. coli 77 CMY-2(+)): 14 mm; zone of inhibition at 0.4 mg/disc [9]: 27 mm
